# From the supplement of paper PMC10307832
# Key:
# Assay in all cases: relative viability (nuclei count vs DMSO), 5 days (fraction); higher = more cells survive
# 201T = system: 201T
# Procedure, shortened: (§1)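 A single step with final 0.05% Triton X-100, 1% formaldehyde and 1 ug/ml Hoechst fixed the cells and stained nuclei 5 days after treatment. Lung cancer cell lines in 1536-well plates had been treated by pin tool the day after seeding with one drug alone or a fixed anchor-drug dose plus five library-drug doses (not always all listed) in √10 steps, and nuclei were counted on 4× images. Relative viability is the ratio of nuclei in treated wells to nuclei in vehicle wells, taken as the median of duplicate plates.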
# ABC-1 = system: ABC-1
# Procedure, shortened: as §1
# CAL-12T = system: CAL-12T
# Procedure, shortened: as §1
# COR-L23 = system: COR-L23
# Procedure, shortened: as §1
# ChaGo-K-1 = system: ChaGo-K-1
# Procedure, shortened: as §1
# HCC-44 = system: HCC-44
# Procedure, shortened: as §1
# HOP-62 = system: HOP-62
# Procedure, shortened: as §1
# LC-2-ad = system: LC-2-ad
# Procedure, shortened: as §1
# LCLC-103H = system: LCLC-103H
# Procedure, shortened: as §1
# NCI-H1355 = system: NCI-H1355
# Procedure, shortened: as §1
# NCI-H1395 = system: NCI-H1395
# Procedure, shortened: as §1
# NCI-H1651 = system: NCI-H1651
# Procedure, shortened: as §1
# NCI-H1666 = system: NCI-H1666
# Procedure, shortened: as §1
# NCI-H1993 = system: NCI-H1993
# Procedure, shortened: as §1
# NCI-H2085 = system: NCI-H2085
# Procedure, shortened: as §1
# NCI-H2170 = system: NCI-H2170
# Procedure, shortened: as §1
# NCI-H2228 = system: NCI-H2228
# Procedure, shortened: as §1
# NCI-H2342 = system: NCI-H2342
# Procedure, shortened: as §1
# NCI-H2347 = system: NCI-H2347
# Procedure, shortened: as §1
# NCI-H23 = system: NCI-H23
# Procedure, shortened: as §1
# NCI-H322M = system: NCI-H322M
# Procedure, shortened: as §1
# NCI-H520 = system: NCI-H520
# Procedure, shortened: as §1
# NCI-H647 = system: NCI-H647
# Procedure, shortened: as §1
# NCI-H661 = system: NCI-H661
# Procedure, shortened: as §1
# NCI-H838 = system: NCI-H838
# Procedure, shortened: as §1
structure (smiles),measurement,setting,value
CCCCCCCCCCCC1=C(O)C(=O)C=C(O)C1=O [Embelin] + CC(=O)c1c(C)c2cnc(Nc3ccc(N4CCNCC4)cn3)nc2n(C2CCCC2)c1=O [Palbociclib] (partner 0.5 µM),relative viability,201T; first compound 0.08 µM,0.375
same,relative viability,201T; first compound 0.8 µM,0.377
same,relative viability,201T; first compound 2.53 µM,0.391
same,relative viability,201T; first compound 8 µM,0.353
same,relative viability,ABC-1; first compound 0.08 µM,0.752
same,relative viability,ABC-1; first compound 0.8 µM,0.664
same,relative viability,ABC-1; first compound 2.53 µM,0.733
same,relative viability,ABC-1; first compound 8 µM,0.72
same,relative viability,CAL-12T; first compound 0.08 µM,0.483
same,relative viability,CAL-12T; first compound 0.8 µM,0.538
same,relative viability,CAL-12T; first compound 2.53 µM,0.331
same,relative viability,CAL-12T; first compound 8 µM,0.553
same,relative viability,COR-L23; first compound 0.08 µM,0.346
same,relative viability,COR-L23; first compound 0.8 µM,0.351
same,relative viability,COR-L23; first compound 2.53 µM,0.313
same,relative viability,COR-L23; first compound 8 µM,0.299
same,relative viability,ChaGo-K-1; first compound 0.08 µM,0.911
same,relative viability,ChaGo-K-1; first compound 0.8 µM,1.01
same,relative viability,ChaGo-K-1; first compound 2.53 µM,1.01
same,relative viability,ChaGo-K-1; first compound 8 µM,0.981
same,relative viability,HCC-44; first compound 0.08 µM,0.951
same,relative viability,HCC-44; first compound 0.8 µM,1.02
same,relative viability,HCC-44; first compound 2.53 µM,0.984
same,relative viability,HCC-44; first compound 8 µM,0.979
same,relative viability,HOP-62; first compound 0.08 µM,0.433
same,relative viability,HOP-62; first compound 0.8 µM,0.489
same,relative viability,HOP-62; first compound 2.53 µM,0.451
same,relative viability,HOP-62; first compound 8 µM,0.392
same,relative viability,LC-2-ad; first compound 0.08 µM,0.433
same,relative viability,LC-2-ad; first compound 0.8 µM,0.442
same,relative viability,LC-2-ad; first compound 2.53 µM,0.535
same,relative viability,LC-2-ad; first compound 8 µM,0.516
same,relative viability,LCLC-103H; first compound 0.08 µM,0.496
same,relative viability,LCLC-103H; first compound 0.8 µM,0.459
same,relative viability,LCLC-103H; first compound 2.53 µM,0.461
same,relative viability,LCLC-103H; first compound 8 µM,0.511
same,relative viability,NCI-H1355; first compound 0.08 µM,0.411
same,relative viability,NCI-H1355; first compound 0.8 µM,0.416
same,relative viability,NCI-H1355; first compound 2.53 µM,0.398
same,relative viability,NCI-H1355; first compound 8 µM,0.366
same,relative viability,NCI-H1395; first compound 0.08 µM,0.599
same,relative viability,NCI-H1395; first compound 0.8 µM,0.623
same,relative viability,NCI-H1395; first compound 2.53 µM,0.65
same,relative viability,NCI-H1395; first compound 8 µM,0.563
same,relative viability,NCI-H1651; first compound 0.08 µM,0.503
same,relative viability,NCI-H1651; first compound 0.8 µM,0.543
same,relative viability,NCI-H1651; first compound 2.53 µM,0.547
same,relative viability,NCI-H1651; first compound 8 µM,0.488
same,relative viability,NCI-H1666; first compound 0.08 µM,0.638
same,relative viability,NCI-H1666; first compound 0.8 µM,0.624
same,relative viability,NCI-H1666; first compound 2.53 µM,0.641
same,relative viability,NCI-H1666; first compound 8 µM,0.681
same,relative viability,NCI-H1993; first compound 0.08 µM,0.641
same,relative viability,NCI-H1993; first compound 0.8 µM,0.674
same,relative viability,NCI-H1993; first compound 2.53 µM,0.721
same,relative viability,NCI-H1993; first compound 8 µM,0.614
same,relative viability,NCI-H2085; first compound 0.08 µM,0.441
same,relative viability,NCI-H2085; first compound 0.8 µM,0.464
same,relative viability,NCI-H2085; first compound 2.53 µM,0.502
same,relative viability,NCI-H2085; first compound 8 µM,0.469
same,relative viability,NCI-H2170; first compound 0.08 µM,0.407
same,relative viability,NCI-H2170; first compound 0.8 µM,0.418
same,relative viability,NCI-H2170; first compound 2.53 µM,0.516
same,relative viability,NCI-H2170; first compound 8 µM,0.382
same,relative viability,NCI-H2228; first compound 0.08 µM,0.824
same,relative viability,NCI-H2228; first compound 0.8 µM,0.865
same,relative viability,NCI-H2228; first compound 2.53 µM,0.68
same,relative viability,NCI-H2228; first compound 8 µM,0.834
same,relative viability,NCI-H2342; first compound 0.08 µM,0.54
same,relative viability,NCI-H2342; first compound 0.8 µM,0.514
same,relative viability,NCI-H2342; first compound 2.53 µM,0.542
same,relative viability,NCI-H2342; first compound 8 µM,0.439
same,relative viability,NCI-H2347; first compound 0.08 µM,0.47
same,relative viability,NCI-H2347; first compound 0.8 µM,0.387
same,relative viability,NCI-H2347; first compound 2.53 µM,0.451
same,relative viability,NCI-H2347; first compound 8 µM,0.389
same,relative viability,NCI-H23; first compound 0.08 µM,0.516
same,relative viability,NCI-H23; first compound 0.8 µM,0.543
same,relative viability,NCI-H23; first compound 2.53 µM,0.533
same,relative viability,NCI-H23; first compound 8 µM,0.594
same,relative viability,NCI-H322M; first compound 0.08 µM,0.456
same,relative viability,NCI-H322M; first compound 0.8 µM,0.528
same,relative viability,NCI-H322M; first compound 2.53 µM,0.493
same,relative viability,NCI-H322M; first compound 8 µM,0.512
same,relative viability,NCI-H520; first compound 0.08 µM,0.303
same,relative viability,NCI-H520; first compound 0.8 µM,0.186
same,relative viability,NCI-H520; first compound 2.53 µM,0.246
same,relative viability,NCI-H520; first compound 8 µM,0.214
same,relative viability,NCI-H647; first compound 0.08 µM,0.405
same,relative viability,NCI-H647; first compound 0.8 µM,0.448
same,relative viability,NCI-H647; first compound 2.53 µM,0.528
same,relative viability,NCI-H647; first compound 8 µM,0.38
same,relative viability,NCI-H661; first compound 0.08 µM,0.405
same,relative viability,NCI-H661; first compound 0.8 µM,0.419
same,relative viability,NCI-H661; first compound 2.53 µM,0.385
same,relative viability,NCI-H661; first compound 8 µM,0.364
same,relative viability,NCI-H838; first compound 0.08 µM,0.249
same,relative viability,NCI-H838; first compound 0.8 µM,0.232
same,relative viability,NCI-H838; first compound 2.53 µM,0.224
same,relative viability,NCI-H838; first compound 8 µM,0.21
